Laboratory results from paper PMC4668384 (Scientific Reports, 2015).
Converted amounts (≈) assume the structure as drawn. Where two headings read alike, the source gives them in different places.

Columns and labels:
[1] = system: V. virens pB-Vv51wt transformants (P-F); test: Tebuconazole sensitivity, mycelial growth on amended PSA, pB-Vv51wt transformants; type: cell-based, Villosiclava virens; settings: Ustilaginoidea virens
[2] = system: V. virens isolate FJ4-1b (wild type); test: Tebuconazole sensitivity, mycelial growth on amended PSA, wild type isolate; type: cell-based, Villosiclava virens; settings: Ustilaginoidea virens, 336 h, 28 °C, 14 days
Experimental: Mycelial plugs (6 mm) were transferred in triplicates from the margins of 14-day old colonies to 9 cm petri dishes containing nonamended or tebuconazole-amended PSA. Dishes were incubated at 28 °C for 14 days in darkness. The average colony diameter was measured in two perpendicular directions, and the EC50 value was determined by regressing percentage growth inhibition against the log of fungicide concentration.

[3] = biological target: T1, truncated wild type VvCYP51 (Ustilaginoidea virens (Villosiclava virens), UniProt X2GGV8); test: UV-visible spectral binding assay, truncated wild type protein
T1 sequence (X2GGV8 29-528): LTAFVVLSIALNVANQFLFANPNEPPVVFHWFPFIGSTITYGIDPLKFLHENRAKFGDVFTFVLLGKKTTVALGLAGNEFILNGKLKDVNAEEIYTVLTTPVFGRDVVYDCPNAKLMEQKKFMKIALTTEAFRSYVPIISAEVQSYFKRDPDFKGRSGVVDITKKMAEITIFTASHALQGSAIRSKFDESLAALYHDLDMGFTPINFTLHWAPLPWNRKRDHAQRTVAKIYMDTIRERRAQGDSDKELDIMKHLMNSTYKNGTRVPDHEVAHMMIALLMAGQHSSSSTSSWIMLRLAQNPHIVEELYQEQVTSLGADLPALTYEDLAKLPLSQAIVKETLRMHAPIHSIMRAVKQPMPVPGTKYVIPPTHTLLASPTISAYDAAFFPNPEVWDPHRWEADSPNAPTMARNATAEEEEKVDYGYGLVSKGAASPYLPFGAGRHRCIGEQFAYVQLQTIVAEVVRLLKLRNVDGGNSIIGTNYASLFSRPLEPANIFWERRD

[4] = system: VvCYP51 gene expression in isolate FJ4-1b; test: Induction of VvCYP51 gene expression by tebuconazole (real-time PCR); settings: 0.1 μg/ml tebuconazole for 6 h, versus untreated control
Experimental: The wild type isolates, mutant, and transformants were grown in 50 ml of PSB at 28 °C for 7 days on a 160 rpm orbital shaker. Total RNA was extracted from mycelia using the TRIzole reagent (Aidlab, Beijing, China), then digested with DNase I nuclease (Takara, Dalian, China) to remove DNA contamination. The cDNA was synthesized using a RevertAid First Strand cDNA Synthesis Kit employing the oligo(dT)18 primer (Thermo Fisher Scientific, Waltham, MA). The expression of the VvCYP51 gene was evaluated by real-time PCR using the primer pair RealCYP51-F/RealCYP51-R. Expression was normalized with the α-tubulin gene. Relative expression was calculated using the comparative Ct (2^−ΔΔCt) method[51]. […] Real-time PCR amplifications of VvCYP51 were performed in a CFX96 Real-Time PCR Detection System (Bio-Rad Laboratories Inc., Hercules, CA) using SYBR Green I fluorescent dye. Amplifications were conducted in a 20-μl volume containing 10 μl of SYBR qPCR Mix (Aidlab, Beijing, China), 1 μl of RT product and 0.2 μM of each primer. All samples were in triplicates with the following profile: an initial preheat at 95 °C for 2 min, followed by 40 cycles at 95 °C for 20 s, 60 °C for 20 s and 72 °C for 20 s. The entire experiment starting with RNA extractions was repeated four times.

Q: How did the EC50 ([1]; 336 h, read-out: EC50 value, transformant P-F 4, mycelial growth on PSA, 28 °C, 14 days) turn out when `CC(C)(C)C(O)(CCc1ccc(Cl)cc1)Cn1cncn1` (stereo not drawn) [tebuconazole] was run?
A: The EC50 was 0.11 µg/mL (≈ 0.357 µM).

Q: What about the EC50 ([1]; 336 h, read-out: EC50 value, transformant P-F 7, mycelial growth on PSA, 28 °C, 14 days) of the same compound?
A: The EC50 was 0.24 µg/mL (≈ 0.78 µM).

Q: And the EC50 ([1]; 336 h, read-out: EC50 value, transformant P-F 8, mycelial growth on PSA, 28 °C, 14 days)?
A: Its EC50 is 0.13 µg/mL (≈ 0.422 µM).

Q: What about the EC50 ([1]; 336 h, read-out: EC50 value, transformant P-F 9, mycelial growth on PSA, 28 °C, 14 days) of the same compound?
A: Its EC50 is 0.15 µg/mL (≈ 0.487 µM).

Q: And the EC50 ([1]; 336 h, read-out: EC50 value, transformant P-F 10, mycelial growth on PSA, 28 °C, 14 days)?
A: The EC50 was 0.12 µg/mL (≈ 0.39 µM).

Q: And the EC50 ([1]; 336 h, read-out: EC50 value, transformant P-F 13, mycelial growth on PSA, 28 °C, 14 days)?
A: Its EC50 is 0.11 µg/mL (≈ 0.357 µM).

Q: What about the EC50 ([1]; 336 h, read-out: EC50 value, transformant P-F 14, mycelial growth on PSA, 28 °C, 14 days) of the same compound?
A: The EC50 was 0.28 µg/mL (≈ 0.91 µM).

Q: And the EC50 ([1]; 336 h, read-out: EC50 value, transformant P-F 15, mycelial growth on PSA, 28 °C, 14 days)?
A: Its EC50 is 0.13 µg/mL (≈ 0.422 µM).

Q: And the EC50 ([1]; 336 h, read-out: EC50 value, transformant P-F 16, mycelial growth on PSA, 28 °C, 14 days)?
A: The EC50 was 0.13 µg/mL (≈ 0.422 µM).

Q: What about the EC50 ([1]; 336 h, read-out: EC50 value, transformant P-F 17, mycelial growth on PSA, 28 °C, 14 days) of the same compound?
A: The EC50 was 0.2 µg/mL (≈ 0.65 µM).

Q: And the EC50 ([1]; 336 h, read-out: EC50 value, transformant P-F 20, mycelial growth on PSA, 28 °C, 14 days)?
A: Its EC50 is 0.27 µg/mL (≈ 0.877 µM).

Q: And the EC50 ([1]; 336 h, read-out: EC50 value, transformant P-F 22, mycelial growth on PSA, 28 °C, 14 days)?
A: The EC50 was 0.15 µg/mL (≈ 0.487 µM).

Q: And the EC50 ([1]; 336 h, read-out: EC50 value, transformant P-F 23, mycelial growth on PSA, 28 °C, 14 days)?
A: The EC50 was 0.2 µg/mL (≈ 0.65 µM).

Q: And the EC50 ([1]; 336 h, read-out: EC50 value, transformant P-F 25, mycelial growth on PSA, 28 °C, 14 days)?
A: The EC50 was 0.15 µg/mL (≈ 0.487 µM).

Q: What about the EC50 ([1]; 336 h, read-out: EC50 value, transformant P-F 26, mycelial growth on PSA, 28 °C, 14 days) of the same compound?
A: Its EC50 is 0.18 µg/mL (≈ 0.585 µM).

Q: What about the EC50 ([1]; 336 h, read-out: EC50 value, transformant P-F 28, mycelial growth on PSA, 28 °C, 14 days) of the same compound?
A: Its EC50 is 0.13 µg/mL (≈ 0.422 µM).

Q: What about the EC50 ([1]; 336 h, read-out: EC50 value, transformant P-F 29, mycelial growth on PSA, 28 °C, 14 days) of the same compound?
A: The EC50 was 0.26 µg/mL (≈ 0.845 µM).

Q: What about the EC50 ([1]; 336 h, read-out: EC50 value, transformant P-F 31, mycelial growth on PSA, 28 °C, 14 days) of the same compound?
A: The EC50 was 0.25 µg/mL (≈ 0.812 µM).

Q: What about the EC50 ([1]; 336 h, read-out: EC50 value, transformant P-F 32, mycelial growth on PSA, 28 °C, 14 days) of the same compound?
A: The EC50 was 0.32 µg/mL (≈ 1.04 µM).

Q: And the EC50 ([1]; 336 h, read-out: EC50 value, transformant P-F 33, mycelial growth on PSA, 28 °C, 14 days)?
A: The EC50 was 0.12 µg/mL (≈ 0.39 µM).

Q: And the EC50 ([1]; 336 h, read-out: EC50 value, transformant P-F 34, mycelial growth on PSA, 28 °C, 14 days)?
A: Its EC50 is 0.15 µg/mL (≈ 0.487 µM).

Q: And the EC50 ([1]; 336 h, read-out: EC50 value, transformant P-F 36, mycelial growth on PSA, 28 °C, 14 days)?
A: Its EC50 is 0.22 µg/mL (≈ 0.715 µM).

Q: What about the EC50 ([1]; 336 h, read-out: EC50 value, transformant P-F 37, mycelial growth on PSA, 28 °C, 14 days) of the same compound?
A: Its EC50 is 0.11 µg/mL (≈ 0.357 µM).

Q: What about the EC50 ([1]; 336 h, read-out: EC50 value, transformant P-F 38, mycelial growth on PSA, 28 °C, 14 days) of the same compound?
A: The EC50 was 0.31 µg/mL (≈ 1.01 µM).

Q: What about the EC50 ([1]; 336 h, read-out: EC50 value, transformant P-F 39, mycelial growth on PSA, 28 °C, 14 days) of the same compound?
A: The EC50 was 0.13 µg/mL (≈ 0.422 µM).

Q: What about the EC50 ([1]; 336 h, read-out: EC50 value, transformant P-F 40, mycelial growth on PSA, 28 °C, 14 days) of the same compound?
A: The EC50 was 0.21 µg/mL (≈ 0.682 µM).

Q: And the EC50 ([1]; read-out: EC50 values (range), range over the 26 pB-Vv51wt transformants)?
A: Its EC50 is 0.11 to 0.32 µg/mL (≈ 0.357 to 1.04 µM).

Q: And the EC50 [2]?
A: The EC50 was 0.04 µg/mL (≈ 0.13 µM).

Q: And the Kd ([3]; bound for the three different truncated wild type VvCYP51 proteins, read-out: Kd values)?
A: Its Kd is < 0.04 µM.

Q: What about the Kd ([3]; wild type VvCYP51, −28aa N-terminal truncation, read-out: Kd) of the same compound?
A: The Kd was 0.037 ± 0.0027 µM.

Q: And the Kd ([3]; wild type VvCYP51, −42aa N-terminal truncation, read-out: Kd)?
A: The Kd was 0.034 ± 0.0023 µM.

Q: What about the Kd ([3]; wild type VvCYP51, −74aa N-terminal truncation, read-out: Kd) of the same compound?
A: The Kd was 0.037 ± 0.0025 µM.

Q: And the “increase of expression of VvCYP51 gene” value [4]?
A: The value was 29.94 fold.
